Measurements from US7666900B2, “ABCA1 stabilizer” (Hykes Laboratories LLC, priority 2004, dated 2010).

Assays:
[1] = Toxicity test, oral administration to mice for one week; type: in vivo
Excerpt: Probucol spiroquinone, probucol diphenoquinone, and probucol bisphenol were orally administered to mice for one week.

[2] = system: ABCA1; assay: ABCA1 expression in THP-1 cells (immunoblotting of total membrane fraction); type: cell-based, human; conditions: for ABCA1 Expression Level (Relative Ratio %): PMA-differentiated THP-1 macrophages, compound incorporated into acetyl-LDL, 48 h then 24 h with or without apoAI, non-treated cells = 100; for intracellular ABCA1 expression level compared with non-treated cells (in words): THP-1 cells
Experimental: (§1) THP-1 cells (human leukemia cells: American Type Culture Collection) were cultured for 72 hours in a 10% FBS-RPMI1640 medium (Iwaki Glass Co., Ltd.) under the presence of PMA (phorbol myristate acetate, 3.2×10^−7 M: Wako Pure Chemical Industries, Ltd.) to obtain differentiated macrophages. Probucol spiroquinone (Synthesis Example 1), probucol diphenoquinone (Synthesis Example 2), or probucol bisphenol (Synthesis Example 3) was added to a medium after being incorporated into acetyl-LDL according to a method of Tsujita, et al. [BIOCHEMISTRY, 35, 13011-13020 (1996)]. The cells were cultured in this medium for 48 hours, and then further cultured for 24 hours in the presence or absence of apoAI. The expression levels of intracellular ABCA1 were assayed according to a method disclosed herein below.
The agent-treated cells and non-treated cells were hypotonically disrupted in 5 mM Tris-HCl (pH 8.5), and then centrifuged (650 g for 5 minutes) to precipitate nuclear fractions. The supernatant was centrifuged at 105,000 g for 30 minutes to collect a total membrane fraction. The total membrane was dissolved in a solution containing 0.9 M urea, 0.2% Triton X-100, and 0.1% dithiothreitol, followed by addition of 10% lithium dodecyl sulfate solution at a volume ratio of 1/4. The resultant was subjected to electrophoretic separation using 10% SDS-7% polyacrylamide gel. The separated proteins were transferred and fixed onto PVDF membrane (Bio-Rad), and then subjected to immunoblotting with anti-human ABCA1 rabbit antibody (self-purified by an ordinary technique) to examine expressed ABCA1 protein levels. The obtained bands of the protein were read for density and size with Scion Image (image analysis software: Scion) to convert the results into digitized forms. The relative ratio of the ABCA1 expression level of the drug-treated cells to that of the non-treated cells was calculated to evaluate the ABCA1-expression activity of the assayed compounds.

[3] = Increase of blood HDL level (rabbit), intravenous microemulsion; type: in vivo; conditions: i.v. microemulsion once a day for 7 days, control = 100
Experimental: The microemulsion (0.5 to 10 mL/body) was administered to each group of 4 rabbits via the ear vein once a day for 7 days. To a control group, a microemulsion containing no test drug was administered in the same manner. Blood was collected in the presence of heparin sodium from the ear vein of each rabbit at 3 hours after the last administration. The blood was centrifuged at 2000 g for 10 minutes to separate plasma. The plasma was applied to electrophoresis using Paragon Electrophoresis System (Beckman Coulter, Inc.) to separate plasma lipoprotein, followed by lipid staining. The images on the gel after the lipid staining were examined to covert the plasma HDL level of each rabbit into a digitized form for the evaluation. In reference to the content amount of each compound in the microemulsion, each blood compound level assumed just after the intravenous administration thereof was set as the dose of each compound.

[4] = system: THP-1 cells; assay: apoAI-dependent HDL-generating reaction in THP-1 cells (cholesterol and phospholipid taken out into the medium); type: cell-based, human; conditions: for Release of HDL Cholesterol (Relative Ratio %) / Release of Phospholipid (Relative Ratio %): apoAI-dependent, non-treated cells = 100
Experimental: as §1
The cultured cells obtained in the same manner as in Assay Example 1 were examined for cholesterol and phospholipid taken out into the medium by the apoAI-dependent HDL-generating reaction, according to a method of Arakawa, et al. [J. LIPID RES., 41, 1952-1962, (2000)]. The results of the drug-treated cells were compared with that of non-treated cells (control). The resulting data were converted into digitized forms as in Assay Example 1, and the relative ratios of the taken out level in the drug-treated cells to that in the non-treated cells were calculated to evaluate the HDL-generating reaction accelerated by the assayed compounds. For comparison, the HDL-generating reaction accelerated by probucol (Wako Pure Chemical Industries, Ltd.) was examined in the same manner as aforementioned.

[5] = Increase of blood HDL level (mouse), oral administration; type: in vivo; conditions: for Plasma HDL Level (Relative Ratio %): 3 hours after last administration, control = 100
Experimental: Probucol spiroquinone (Synthesis Example 1: 50 mg/kg or 150 mg/kg) or probucol diphenoquinone (Synthesis Example 2: 50 mg/kg or 150 mg/kg) suspended in a 0.5% carboxymethylcellulose solution was orally administered to each group of 3 or 4 mice once a day for 7 days. To a control group, only the 0.5% carboxymethylcellulose solution was administered in the same manner. Animals were subjected to laparotomy under ether anesthesia at 3 hours after the last administration, and blood was collected in the presence of heparin sodium from the heart of each mouse. The blood was centrifuged at 2000 g for 10 minutes to separate plasma. The plasma was applied to electrophoresis using Paragon Electrophoresis System (Beckman Coulter, Inc.) to separate plasma lipoprotein, followed by lipid staining. The images on the gel after the lipid staining were examined to covert the plasma HDL level of each mouse into a digitized form for the evaluation.

[6] = dose as assumed blood level 0.14 μM
[7] = dose as assumed blood level 0.57 μM
[8] = 50 mg/kg orally once a day for 7 days
[9] = 150 mg/kg orally once a day for 7 days

SMILES	findings in toxicity test [1]	ABCA1 Expression Level (Relative Ratio %) [2] [%]	intracellular ABCA1 expression level compared with non-treated cells (in words) [2]	Plasma HDL Level (Relative Ratio %) [3, 6] [%]	Plasma HDL Level (Relative Ratio %) [3, 7] [%]	Release of HDL Cholesterol (Relative Ratio %) [4] [%]	Release of Phospholipid (Relative Ratio %) [4] [%]	Plasma HDL Level (Relative Ratio %) [5, 8] [%]	Plasma HDL Level (Relative Ratio %) [5, 9] [%]	Plasma HDL Level (Relative Ratio %) ([3]; dose as assumed blood level 0.16 μM) [%]	Plasma HDL Level (Relative Ratio %) ([3]; dose as assumed blood level 0.31 μM) [%]	plasma HDL level increase compared with control group ([5]; 50 or 150 mg/kg orally once a day for 7 days)	apoAI-dependently taken out HDL cholesterol (in words) [4]	level of taken out phospholipid as fraction of non-treated cells [4]
CC(C)(C)c1cc(-c2cc(C(C)(C)C)c(O)c(C(C)(C)C)c2)cc(C(C)(C)C)c1O [Probucol bisphenol, 4,4′-dihydroxy-3,5,3′,5′-tetra-t-butyldiphenyl]	no abnormal findings were observed	153	remarkably elevated	145	135	137	144	–	–	–	–	–	–	–
CC(C)(C)C1=CC(=C2C=C(C(C)(C)C)C(=O)C(C(C)(C)C)=C2)C=C(C(C)(C)C)C1=O [Probucol diphenoquinone, 3,5,3′,5′-tetra-t-butyl-4,4′-diphenoquinone]	no abnormal findings were observed	173	remarkably elevated	–	–	159	200	113	180	148	130	–	–	–
CC1(C)SC2(C=C(C(C)(C)C)C(=O)C(C(C)(C)C)=C2)C2(C=C(C(C)(C)C)C(=O)C(C(C)(C)C)=C2)S1 [Probucol spiroquinone, 2,4,9,11-tetrakis(1,1-dimethylethyl)-14,14-dimethyl-13,15-dithiadispiro[5.0.5.3]pentadeca-1,4,8,11-tetraene-3,10-dione]	no abnormal findings were observed	191	remarkably elevated	157	194	148	151	120	124	–	–	about 1.2 times	–	–
CC(C)(Sc1cc(C(C)(C)C)c(O)c(C(C)(C)C)c1)Sc1cc(C(C)(C)C)c(O)c(C(C)(C)C)c1 [Probucol, 4,4′-(isopropylidenedithio)bis(2,6-di-t-butylphenol), reference compound]	–	–	–	–	–	0	34	–	–	–	–	–	no apoAI-dependently taken out HDL cholesterol was observed	less than ⅓
